Data on 22 molecules can be found in patent US11685746B2, “Heteroaryl compounds for treating Huntington's disease” (PTC THERAPEUTICS, INC., priority 2018, dated 2023).

The assay concerns Endogenous Huntingtin Protein. As to the kind of experiment: Endogenous Huntingtin Protein Assay (MSD plates, MW1 or MAB2166 capture antibody). In kind it is cell-based. To be noted: Table 1. The procedure: Endogenous Huntingtin Protein Assay
Meso Scale Discovery (MSD) 96-well or 384-well plates were coated overnight at 4° C. with MW1 (expanded polyglutamine) or MAB2166 monoclonal antibody (for capture) at a concentration of 1 μg/mL in PBS (30 μL per well). Plates were then washed three times with 300 μL wash buffer (0.05% Tween-20 in PBS) and blocked (100 μL blocking buffer; 5% BSA in PBS) for 4-5 hours at room temperature with rotational shaking and then washed three times with wash buffer.
Samples (25 μL) were transferred to the antibody-coated MSD plate and incubated overnight at 4° C. After removal of the lysates, the plate was washed three times with wash buffer, and 25 μL of #5656S (Cell signaling; rabbit monoclonal) secondary antibody (diluted to 0.25 μg/mL in 0.05% Tween-20 in blocking buffer) was added to each well and incubated with shaking for 1 Hour at room temperature. Following incubation with the secondary antibody, the wells were rinsed with wash buffer after which 25 μL of goat anti-rabbit SULFO TAG secondary detection antibody (required aspect of the MSD system) (diluted to 0.25 μg/mL in 0.05% Tween-20 in blocking buffer) was added to each well and incubated with shaking for 1 hour at room temperature. After rinsing three times with wash buffer, 150 μL of read buffer T with surfactant (MSD) were added to each empty well, and the plate was imaged on a SI 6000 imager (MSD) according to manufacturers' instructions provided for 96- or 384-well plates.
`CN(c1nc2sc(-n3ccc(-n4cc(F)cn4)cc3=O)nc2s1)[C@H]1C[C@]2(C)CC[C@](C)(C1)N2` [Compound 148, 1-(5-{[(1R,3s,5S)-1,5-dimethyl-8-azabicyclo[3.2.1]octan-3-yl](methyl)amino}[1,3]thiazolo[5,4-d][1,3]thiazol-2-yl)-4-(4-fluoro-1H-pyrazol-1-yl)pyridin-2(1H)-one] had an IC50 of at most 0.1 µM.
The molecule `Cc1n[nH]cc1-c1cnc(-c2nc3sc(N(C)C4CCNCC4)nc3s2)c(O)c1` [Compound 219, 2-{5-[methyl(piperidin-4-yl)amino][1,3]thiazolo[5,4-d][1,3]thiazol-2-yl}-5-(3-methyl-1H-pyrazol-4-yl)pyridin-3-ol] had an IC50 of at most 0.1 µM.
With `C[C@H]1C[C@@H](Oc2nc3sc(-c4ncc(-c5cn[nH]c5)c5cc[nH]c45)nc3s2)CCN1` [Compound 120, 7-(5-{[(2S,4S)-2-methylpiperidin-4-yl]oxy}[1,3]thiazolo[5,4-d][1,3]thiazol-2-yl)-4-(1H-pyrazol-4-yl)-1H-pyrrolo[2,3-c]pyridine], the IC50 was at most 0.1 µM.
Turning to `CN(c1nc2sc(-n3ccc(Br)cc3=O)nc2s1)[C@@H]1C[C@H]2CC[C@@H](C1)N2` [Compound 171, 1-(5-{[(1R,3s,5S)-8-azabicyclo[3.2.1]octan-3-yl](methyl)amino}[1,3]thiazolo[5,4-d][1,3]thiazol-2-yl)-4-bromopyridin-2(1H)-one], the IC50 was at most 0.1 µM.
For `C[C@H]1C[C@H](N(C)c2nc3sc(-c4ncc(-c5cn[nH]c5)c5cc[nH]c45)nc3s2)CCN1` [Compound 75, N-methyl-N-[(2S,4R)-2-methylpiperidin-4-yl]-5-[4-(1H-pyrazol-4-yl)-1H-pyrrolo[2,3-c]pyridin-7-yl][1,3]thiazolo[5,4-d][1,3]thiazol-2-amine] the value was at most 0.1 µM; for “N-methyl-N-[(2S,4R)-2-methylpiperidin-4-yl]-5-[4-(1H-pyrazol-4-yl)-1H-pyrrolo[2,3-c]pyridin-7-yl][1,3]thiazolo[5,4-d][1,3]thiazol-2-amine [Compound 72]”, at most 0.1 µM.
Regarding `CN(c1nc2sc(-c3ncc(-n4cc(F)cn4)cc3O)nc2s1)C1CCNCC1` [Compound 62, 5-(4-fluoropyrazol-1-yl)-2-[5-[methyl(4-piperidyl)amino]thiazolo[5,4-d]thiazol-2-yl]pyridin-3-ol], the IC50 lay in the range of 1 to 3 µM.
For `CN(c1nc2sc(-c3cnc(-n4ccnc4)cn3)nc2s1)C1CC(C)(C)NC(C)(C)C1` [Compound 102, 5-[5-(1H-imidazol-1-yl)pyrazin-2-yl]-N-methyl-N-(2,2,6,6-tetramethylpiperidin-4-yl)[1,3]thiazolo[5,4-d][1,3]thiazol-2-amine] the value was at most 0.1 µM; for `CN(c1nc2sc(-c3cnc(-c4cn[nH]c4)cn3)nc2s1)[C@@H]1C[C@H]2CC[C@@H](C1)N2` [Compound 164, N-[(1R,3s,5S)-8-azabicyclo[3.2.1]octan-3-yl]-N-methyl-5-[5-(1H-pyrazol-4-yl)pyrazin-2-yl][1,3]thiazolo[5,4-d][1,3]thiazol-2-amine], at most 0.1 µM; for `Oc1cc(-c2cn[nH]c2)ccc1-c1nc2sc(NC3CCNCC3)nc2s1` [Compound 22, 2-[5-(piperidin-4-ylamino)[1,3]thiazolo[5,4-d][1,3]thiazol-2-yl]-5-(1H-pyrazol-4-yl)phenol], at most 0.1 µM.
`CN(c1nc2sc(-c3ncc(-n4cncn4)cc3O)nc2s1)C1CCNCC1` [Compound 212, 2-{5-[methyl(piperidin-4-yl)amino][1,3]thiazolo[5,4-d][1,3]thiazol-2-yl}-5-(1H-1,2,4-triazol-1-yl)pyridin-3-ol]: the IC50 lay within 0.1 to 0.5 µM.
For the molecule `CC(C)(C)NC1CCN(c2nc3sc(-n4ccc(-c5cn[nH]c5)cc4=O)nc3s2)C1` (stereo not shown) [Compound 151, 1-{5-[3-(tert-butylamino)pyrrolidin-1-yl][1,3]thiazolo[5,4-d][1,3]thiazol-2-yl}-4-(1H-pyrazol-4-yl)pyridin-2(1H)-one], the IC50 is 0.1 to 0.5 µM.
`CN(c1nc2sc(-c3ncc(-c4cn[nH]c4)cc3O)nc2s1)C1CCNCC1` [Compound 47, 2-{5-[methyl(piperidin-4-yl)amino][1,3]thiazolo[5,4-d][1,3]thiazol-2-yl}-5-(1H-pyrazol-4-yl)pyridin-3-ol] came in with a 50% inhibitory concentration (IC50) of at most 0.1 µM.
The molecule `CN(c1nc2sc(-c3ccc(-c4cn[nH]c4F)cc3O)nc2s1)C1CC(C)(C)NC(C)(C)C1` [Compound 43, 5-(5-fluoro-1H-pyrazol-4-yl)-2-{5-[methyl(2,2,6,6-tetramethylpiperidin-4-yl)amino][1,3]thiazolo[5,4-d][1,3]thiazol-2-yl}phenol] showed an IC50 of at most 0.1 µM.
`CC1CC(N(C)c2nc3sc(-c4ccc(-c5cn[nH]c5)c5cn[nH]c45)nc3s2)CCN1C` (stereo not shown) [Compound 108, N-(1,2-dimethylpiperidin-4-yl)-N-methyl-5-[4-(1H-pyrazol-4-yl)-1H-indazol-7-yl][1,3]thiazolo[5,4-d][1,3]thiazol-2-amine] displayed an IC50 of at most 0.1 µM.
`CCn1cc(-c2cnc(-c3nc4sc(N(C)[C@H]5CCN[C@H](C)C5)nc4s3)c3[nH]ccc23)cn1` [Compound 90, 5-[4-(1-ethyl-1H-pyrazol-4-yl)-1H-pyrrolo[2,3-c]pyridin-7-yl]-N-methyl-N-[(2R,4S)-2-methylpiperidin-4-yl][1,3]thiazolo[5,4-d][1,3]thiazol-2-amine] had an IC50 of at most 0.1 µM.
The same measure for `Oc1cc(-c2cn[nH]c2)ccc1-c1nc2sc(N3CCNCC3)nc2s1` [Compound 6, 2-[5-(piperazin-1-yl)[1,3]thiazolo[5,4-d][1,3]thiazol-2-yl]-5-(1H-pyrazol-4-yl)phenol]: 1 to 3 µM.
`C[C@@H]1C[C@@H](Oc2nc3sc(-c4ccc(-c5cn[nH]c5)c5nc[nH]c45)nc3s2)CCN1` [Compound 68, 7-(5-{[(2R,4S)-2-methylpiperidin-4-yl]oxy}[1,3]thiazolo[5,4-d][1,3]thiazol-2-yl)-4-(1H-pyrazol-4-yl)-1H-benzimidazole] came in with an IC50 of at most 0.1 µM.
Regarding `Cc1cn(-c2cnc(-c3nc4sc(N(C)C5CCNCC5)nc4s3)c(O)c2)cn1` [Compound 221, 5-(4-methyl-1H-imidazol-1-yl)-2-{5-[methyl(piperidin-4-yl)amino][1,3]thiazolo[5,4-d][1,3]thiazol-2-yl}pyridin-3-ol], the IC50 was at most 0.1 µM.
The molecule `Cn1cc2cc(-c3cn4nc(C5=CC6CCC(C5)N6)sc4n3)cc(C#N)c2n1` (stereo not shown) [Compound 33, 5-[2-(8-azabicyclo[3.2.1]oct-2-en-3-yl)imidazo[2,1-b][1,3,4]thiadiazol-6-yl]-2-methyl-2H-indazole-7-carbonitrile] gave an IC50 of 1 to 3 µM.
In turn, `C[C@@H]1C[C@@H](Oc2nc3sc(-c4ncc(-c5cn[nH]c5)c5cn[nH]c45)nc3s2)CCN1` [Compound 74, 7-(5-{[(2R,4S)-2-methylpiperidin-4-yl]oxy}[1,3]thiazolo[5,4-d][1,3]thiazol-2-yl)-4-(1H-pyrazol-4-yl)-1H-pyrazolo[3,4-c]pyridine] gave an IC50 of at most 0.1 µM.
As to `CN(c1nc2sc(-c3cc(F)c(-c4cn[nH]c4)cc3F)nc2s1)C1CC(C)(C)NC(C)(C)C1` [Compound 4, 5-[2,5-difluoro-4-(1H-pyrazol-4-yl)phenyl]-N-methyl-N-(2,2,6,6-tetramethylpiperidin-4-yl)[1,3]thiazolo[5,4-d][1,3]thiazol-2-amine], the IC50 was at most 0.1 µM.

As usually defined, the IC50 is the concentration needed to halve the response being measured. Higher therefore signals weaker potency.
